# Results taken from US20230085307A1, “PYRIDAZINONE COMPOUND AND HERBICIDE” (NISSAN CHEMICAL CORPORATION, priority 2019, published 2023).
# System: wild oat
# Assay: Test Example 5: herbicidal effect by foliage application, plastic box (Table 20, symbol I)
# Assay type: in vivo, wild oat (Avena fatua)
# Conditions: foliage application, 320 g/ha, evaluated three weeks after application
# How it was run: (§1)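 Foliar spray test: emulsion formulation diluted in water to a set application rate, sprayed onto 14-day-old plants raised in diluvial soil at 25° C to 30° C under glass. Both herbicidal effect and crop effect rated visually three weeks later.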
row,Structure (SMILES),herbicidal effect on I: wild oat (criteria 0-5)
1,CCCC(=O)Oc1c(C)nn(C)c(=O)c1-c1c(-c2ccc(SCC)cc2)sc2ccc(F)cc12 [2-245],5 (Herbicidal rate of 90% or more (almost completely withered))

# Same assay, conditions: foliage application, AAH 320 g/ha, evaluated three weeks after application
row,Structure (SMILES),"I: wild oat, herbicidal effect (criteria 0-5)"
1,Cc1nn(C)c(=O)c(-c2c(-c3ccc(SC4CC4)cc3)sc3ccc(F)cc23)c1O [2-254],5 (Herbicidal rate of 90% or more (almost completely withered))

# System: persian speedwell
# Assay: Test Example 5: herbicidal effect by foliage application, plastic box (Table 20, symbol R)
# Assay type: in vivo, Persian speedwell (Veronica persica)
# Conditions: foliage application, 320 g/ha, evaluated three weeks after application
# How it was run: as §1
row,Structure (SMILES),herbicidal effect on R: persian speedwell (criteria 0-5)
1,CCCC(=O)Oc1c(C)nn(C)c(=O)c1-c1c(-c2ccc(SCC)cc2)sc2ccc(F)cc12 [2-245],5 (Herbicidal rate of 90% or more (almost completely withered))

# Same assay, conditions: foliage application, AAH 320 g/ha, evaluated three weeks after application
row,Structure (SMILES),"R: persian speedwell, herbicidal effect (criteria 0-5)"
1,Cc1nn(C)c(=O)c(-c2c(-c3ccc(SC4CC4)cc3)sc3ccc(F)cc23)c1O [2-254],5 (Herbicidal rate of 90% or more (almost completely withered))

# System: late watergrass
# Assay: Test Example 2: herbicidal activity, application during weed generation under submerged conditions (Table 17, symbol A)
# Assay type: in vivo, late watergrass (Echinochloa oryzicola)
# Conditions: AAH 320 g/ha; application during weed generation, submerged conditions
# How it was run: (§2)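 In this pot test, flooded alluvial soil (water depth 4 cm) holds all three species sown as a mixture. Once seedlings have one to two leaves, the compound's emulsion, thinned with water to the intended dose, is poured on the water; grading follows after three weeks on the earlier criteria.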
row,Structure (SMILES),"herbicidal effect rating, A: late watergrass"
1,CCCC(=O)Oc1c(C)nn(C)c(=O)c1-c1c(-c2ccc(SCC)cc2)sc2ccc(F)cc12 [2-245],5 (Herbicidal rate of 90% or more (almost completely withered))
2,Cc1nn(C)c(=O)c(-c2c(-c3ccc(SC4CC4)cc3)sc3ccc(F)cc23)c1O [2-254],4 (Herbicidal rate of 70% or more and less than 90%)

# System: redroot pigweed
# Assay: Test Example 4: herbicidal effect by soil treatment (Table 19, symbol N)
# Assay type: in vivo, redroot pigweed (Amaranthus retroflexus)
# Conditions: amount of applied herbicide 320 g/ha
# How it was run: (§3)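 Herbicidal effect was rated 3 weeks after treatment, using the scoring criteria of an earlier test. The compound, formulated as an emulsion and diluted in water to a set herbicide amount, had been sprayed uniformly on soil over freshly sown seeds. Growth took place in a greenhouse at 25° C. to 30° C.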
row,Structure (SMILES),herbicidal effect on N: redroot pigweed
1,CCCC(=O)Oc1c(C)nn(C)c(=O)c1-c1c(-c2ccc(SCC)cc2)sc2ccc(F)cc12 [2-245],5 (Herbicidal rate of 90% or more (almost completely withered))
2,Cc1nn(C)c(=O)c(-c2c(-c3ccc(SC4CC4)cc3)sc3ccc(F)cc23)c1O [2-254],5 (Herbicidal rate of 90% or more (almost completely withered))

# System: late watergrass
# Assay: Test Example 1: herbicidal activity, application before weed generation under submerged conditions (Table 16, symbol A)
# Assay type: in vivo, late watergrass (Echinochloa oryzicola)
# Conditions: 320 g/ha applied herbicide
# How it was run: (§4)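 Submerged Wagner pots (alluvial soil, 4 cm water) sown with weed seeds and planted with 2.5-leaf rice seedlings; emulsifiable concentrate diluted in water applied to water surface on sowing day. Held in greenhouse at 25-30 °C; injury scored 0-5 by herbicidal rate after three weeks.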
row,Structure (SMILES),Herbicidal effect on A: late watergrass (grade 0-5)
1,CCCC(=O)Oc1c(C)nn(C)c(=O)c1-c1c(-c2ccc(SCC)cc2)sc2ccc(F)cc12 [2-245],4 (Herbicidal rate of 70% or more and less than 90%)
2,Cc1nn(C)c(=O)c(-c2c(-c3ccc(SC4CC4)cc3)sc3ccc(F)cc23)c1O [2-254],5 (Herbicidal rate of 90% or more (almost completely withered))

# System: rice flat sedge
# Assay: Test Example 3: herbicidal effect by foliage application, Wagner pot (Table 18, symbol E)
# Assay type: in vivo, rice flat sedge (Cyperus iria)
# Conditions: amount of applied herbicide 320 g/ha
# How it was run: (§5)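 Plants were sown in alluvial soil held under 0.1–0.5 cm standing water and grown 14 days in a greenhouse at 25–30 °C. An emulsifiable formulation, water-diluted to the set dose, was then sprayed onto the foliage, and effects were scored three weeks later using previously defined criteria.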
row,Structure (SMILES),herbicidal effect on E: rice flat sedge
1,CCCC(=O)Oc1c(C)nn(C)c(=O)c1-c1c(-c2ccc(SCC)cc2)sc2ccc(F)cc12 [2-245],4 (Herbicidal rate of 70% or more and less than 90%)
2,Cc1nn(C)c(=O)c(-c2c(-c3ccc(SC4CC4)cc3)sc3ccc(F)cc23)c1O [2-254],5 (Herbicidal rate of 90% or more (almost completely withered))

# System: Chinese sprangletop
# Assay: Test Example 3: herbicidal effect by foliage application, Wagner pot (Table 18, symbol D)
# Assay type: in vivo, chinese sprangletop (Leptochloa chinensis)
# Conditions: amount of applied herbicide 320 g/ha
# How it was run: as §5
row,Structure (SMILES),herbicidal effect on D: Chinese sprangletop
1,CCCC(=O)Oc1c(C)nn(C)c(=O)c1-c1c(-c2ccc(SCC)cc2)sc2ccc(F)cc12 [2-245],4 (Herbicidal rate of 70% or more and less than 90%)
2,Cc1nn(C)c(=O)c(-c2c(-c3ccc(SC4CC4)cc3)sc3ccc(F)cc23)c1O [2-254],5 (Herbicidal rate of 90% or more (almost completely withered))

# System: green foxtail
# Assay: Test Example 5: herbicidal effect by foliage application, plastic box (Table 20, symbol G)
# Assay type: in vivo, green foxtail (Setaria viridis)
# Conditions: foliage application, 320 g/ha, evaluated three weeks after application
# How it was run: as §1
row,Structure (SMILES),herbicidal effect on G: green foxtail (criteria 0-5)
1,CCCC(=O)Oc1c(C)nn(C)c(=O)c1-c1c(-c2ccc(SCC)cc2)sc2ccc(F)cc12 [2-245],5 (Herbicidal rate of 90% or more (almost completely withered))

# Same assay, conditions: foliage application, AAH 320 g/ha, evaluated three weeks after application
row,Structure (SMILES),"G: green foxtail, herbicidal effect (criteria 0-5)"
1,Cc1nn(C)c(=O)c(-c2c(-c3ccc(SC4CC4)cc3)sc3ccc(F)cc23)c1O [2-254],5 (Herbicidal rate of 90% or more (almost completely withered))

# System: oval-leafed pondweed
# Assay: Test Example 2: herbicidal activity, application during weed generation under submerged conditions (Table 17, symbol C)
# Assay type: in vivo, oval-leafed pondweed (Monochoria vaginalis)
# Conditions: AAH 320 g/ha; application during weed generation, submerged conditions
# How it was run: as §2
row,Structure (SMILES),"herbicidal effect rating, C: oval-leafed pondweed"
1,CCCC(=O)Oc1c(C)nn(C)c(=O)c1-c1c(-c2ccc(SCC)cc2)sc2ccc(F)cc12 [2-245],4 (Herbicidal rate of 70% or more and less than 90%)
2,Cc1nn(C)c(=O)c(-c2c(-c3ccc(SC4CC4)cc3)sc3ccc(F)cc23)c1O [2-254],0 (Herbicidal rate of 5% or less (almost no effect))

# System: blackgrass
# Assay: Test Example 5: herbicidal effect by foliage application, plastic box (Table 20, symbol J)
# Assay type: in vivo, blackgrass (Alopecurus myosuroides)
# Conditions: foliage application, 320 g/ha, evaluated three weeks after application
# How it was run: as §1
row,Structure (SMILES),herbicidal effect on J: blackgrass (criteria 0-5)
1,CCCC(=O)Oc1c(C)nn(C)c(=O)c1-c1c(-c2ccc(SCC)cc2)sc2ccc(F)cc12 [2-245],4 (Herbicidal rate of 70% or more and less than 90%)

# Same assay, conditions: foliage application, AAH 320 g/ha, evaluated three weeks after application
row,Structure (SMILES),"J: blackgrass, herbicidal effect (criteria 0-5)"
1,Cc1nn(C)c(=O)c(-c2c(-c3ccc(SC4CC4)cc3)sc3ccc(F)cc23)c1O [2-254],5 (Herbicidal rate of 90% or more (almost completely withered))

# System: Japanese bulrush
# Assay: Test Example 1: herbicidal activity, application before weed generation under submerged conditions (Table 16, symbol B)
# Assay type: in vivo, Japanese bulrush (Schoenoplectus juncoides)
# Conditions: 320 g/ha applied herbicide
# How it was run: as §4
row,Structure (SMILES),Herbicidal effect on B: Japanese bulrush (grade 0-5)
1,CCCC(=O)Oc1c(C)nn(C)c(=O)c1-c1c(-c2ccc(SCC)cc2)sc2ccc(F)cc12 [2-245],3 (Herbicidal rate of 40% or more and less than 70%)
2,Cc1nn(C)c(=O)c(-c2c(-c3ccc(SC4CC4)cc3)sc3ccc(F)cc23)c1O [2-254],3 (Herbicidal rate of 40% or more and less than 70%)

# System: Italian ryegrass
# Assay: Test Example 4: herbicidal effect by soil treatment (Table 19, symbol K)
# Assay type: in vivo, Italian ryegrass (Lolium multiflorum)
# Conditions: amount of applied herbicide 320 g/ha
# How it was run: as §3
row,Structure (SMILES),herbicidal effect on K: Italian ryegrass
1,CCCC(=O)Oc1c(C)nn(C)c(=O)c1-c1c(-c2ccc(SCC)cc2)sc2ccc(F)cc12 [2-245],4 (Herbicidal rate of 70% or more and less than 90%)
2,Cc1nn(C)c(=O)c(-c2c(-c3ccc(SC4CC4)cc3)sc3ccc(F)cc23)c1O [2-254],5 (Herbicidal rate of 90% or more (almost completely withered))

# System: barnyard grass
# Assay: Test Example 3: herbicidal effect by foliage application, Wagner pot (Table 18, symbol H)
# Assay type: in vivo, barnyard grass (Echinochloa crus-galli)
# Conditions: amount of applied herbicide 320 g/ha
# How it was run: as §5
row,Structure (SMILES),herbicidal effect on H: barnyard grass
1,CCCC(=O)Oc1c(C)nn(C)c(=O)c1-c1c(-c2ccc(SCC)cc2)sc2ccc(F)cc12 [2-245],5 (Herbicidal rate of 90% or more (almost completely withered))
2,Cc1nn(C)c(=O)c(-c2c(-c3ccc(SC4CC4)cc3)sc3ccc(F)cc23)c1O [2-254],5 (Herbicidal rate of 90% or more (almost completely withered))

# System: windgrass
# Assay: Test Example 4: herbicidal effect by soil treatment (Table 19, symbol L)
# Assay type: in vivo, windgrass (Apera spica-venti)
# Conditions: amount of applied herbicide 320 g/ha
# How it was run: as §3
row,Structure (SMILES),herbicidal effect on L: windgrass
1,CCCC(=O)Oc1c(C)nn(C)c(=O)c1-c1c(-c2ccc(SCC)cc2)sc2ccc(F)cc12 [2-245],3 (Herbicidal rate of 40% or more and less than 70%)
2,Cc1nn(C)c(=O)c(-c2c(-c3ccc(SC4CC4)cc3)sc3ccc(F)cc23)c1O [2-254],3 (Herbicidal rate of 40% or more and less than 70%)

# System: southern crabgrass
# Assay: Test Example 5: herbicidal effect by foliage application, plastic box (Table 20, symbol F)
# Assay type: in vivo, southern crabgrass (Digitaria ciliaris)
# Conditions: foliage application, 320 g/ha, evaluated three weeks after application
# How it was run: as §1
row,Structure (SMILES),herbicidal effect on F: southern crabgrass (criteria 0-5)
1,CCCC(=O)Oc1c(C)nn(C)c(=O)c1-c1c(-c2ccc(SCC)cc2)sc2ccc(F)cc12 [2-245],5 (Herbicidal rate of 90% or more (almost completely withered))

# Same assay, conditions: foliage application, AAH 320 g/ha, evaluated three weeks after application
row,Structure (SMILES),"F: southern crabgrass, herbicidal effect (criteria 0-5)"
1,Cc1nn(C)c(=O)c(-c2c(-c3ccc(SC4CC4)cc3)sc3ccc(F)cc23)c1O [2-254],5 (Herbicidal rate of 90% or more (almost completely withered))

# System: barnyard grass
# Assay: Test Example 5: herbicidal effect by foliage application, plastic box (Table 20, symbol H)
# Assay type: in vivo, barnyard grass (Echinochloa crus-galli)
# Conditions: foliage application, 320 g/ha, evaluated three weeks after application
# How it was run: as §1
row,Structure (SMILES),herbicidal effect on H: barnyard grass (criteria 0-5)
1,CCCC(=O)Oc1c(C)nn(C)c(=O)c1-c1c(-c2ccc(SCC)cc2)sc2ccc(F)cc12 [2-245],5 (Herbicidal rate of 90% or more (almost completely withered))

# Same assay, conditions: foliage application, AAH 320 g/ha, evaluated three weeks after application
row,Structure (SMILES),"H: barnyard grass, herbicidal effect (criteria 0-5)"
1,Cc1nn(C)c(=O)c(-c2c(-c3ccc(SC4CC4)cc3)sc3ccc(F)cc23)c1O [2-254],5 (Herbicidal rate of 90% or more (almost completely withered))
